Laboratory results as given in PMC6723402, “Secondary Metabolites with α-Glucosidase Inhibitory Activity from the Mangrove Fungus Mycosphaerella sp. SYSU-DZG01” (Marine Drugs, 2019).

What was measured:
[1] = target: α-glucosidase; experiment: α-glucosidase inhibitory activity assay (p-nitrophenyl glycoside substrate, 96-well, 405 nm); format: biochemical; conditions: PBS pH 7.0, 37 °C
Protocol: The α-glucosidase inhibitory activity was assayed according to the reported method. The inhibitory activity of α-glucosidase was tested in the 96-well plated with […] PBS (KH2PO4-K2HPO4, pH 7.0) buffer solution each. […] The assay was conducted in a 100 μL reaction system containing 20 μL enzyme stock solution, 69 μL PBS buffers and 1 μL of DMSO or testing materials. After 10 min incubation at 37 °C, 10 μL of the substrate was added and incubated for 20 min at 37 °C. The Absorbance which measured by a BIO-RAD (iMark) microplate reader at 405 nm was used to calculate the inhibitory activity according to the equation:η (%) = [(B − S)/B] × 100%(1) η (%) is the percentage of inhibition; B is the assay medium with DMSO; S is the assay medium with compound. The results of IC50 values were calculated by the nonlinear regression analysis.

[2] = DPPH· radical scavenging (antioxidant) assay; conditions: 30 min; for Antioxidant % Inhibition (100 μM): DPPH· scavenging at 100 μM; for EC50: DPPH· scavenging
Protocol: The DPPH· scavenging was assayed according to the reported method. The DPPH radical scavenging test was performed in 96-well microplates. Testing materials (compounds 1–11) were added to 150 μL (0.16 mmol/L) DPPH solution in MeOH at a range of 50 μL solutions of different concentrations (2, 25, 50 and 100 μM). After 30 min, absorbance at 517 nm was measured and the percentage of activity was calculated. Ascorbic acid was used as a positive control.

Row | Compound | IC50 [1] | EC50 [2] | melting point | Antioxidant % Inhibition (100 μM) [2]
1 | O=C1O[C@H]([C@@H](O)CO)C(O)=C1O [Ascorbic acid, ascorbic acid, reference compound] | – | 22.4 µM | – | 92%
2 | CC1=CC2C=C(C)C(C)C3C(CC(C)C)NC(=O)C23C(=O)C2C3OC(c4c(C)c(O)c(O)c(O)c43)C2C(=O)CCC1 (stereo not drawn) [Compound 1, asperchalasine I] | 17.1 µM | 77.8 µM | – | 56%
3 | CC(O)C1OCc2c(O)cccc21 [Compound 3, (R)-9-((R)-10-hydroxyethyl)-7,9-dihydroisobenzofuran-1-ol] | > 50 µM | – | 89.8 to 91.9 °C | <50%
4 | COC(=O)c1c(C)c(O)c(O)c(O)c1C=O [Compound 4, 2-methoxycarbonyl-4,5,6-trihydroxy-3-methyl-benzaldehyde] | > 50 µM | 85.8 µM | 95.9 to 97.8 °C | 57%
5 | Cc1c(O)c(O)c(O)c2c1COC2=O [Compound 5, epicoccone B] | > 50 µM | – | – | <50%
6 | Cc1c(O)cc(O)c(C(=O)OC[C@@H](O)[C@H](O)[C@H](O)CO)c1C [Compound 7, paeciloside A] | > 50 µM | – | – | <50%

The next lines start with results.

Row | IC50 [1] | EC50 [2] | melting point | Compound | Antioxidant % Inhibition (100 μM) [2]
7 | > 50 µM | 59.1 µM | – | 1,3-dihydro-5-methoxy-7-methylisobenzofuran [Compound 6] | 65%
8 | > 50 µM | – | – | CC1=C(C)C2(C)C(=O)C(O)(C1=O)C1(C)C(=O)C2(O)C(=O)C(C)=C1C [Compound 2, dibefurin B] | <50%
9 | 26.7 µM | 16.3 µM | – | Cc1c(O)c(O)c(O)c(C=O)c1-c1cc2c(C=O)c(C)c(O)c(O)c2o1 [Compound 8, epicoccolide B] | 89%
